From PubChem BioAssay (NCI)
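Interpolation was linear, between the two tested concentrations surrounding the appropriate level; five concentrations were tested over 48 hours in 96-well plates. GI50: concentration for 50% inhibition of growth. TGI marks complete inhibition of growth.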

Key:
Test in all cases: NCI-60 cell line screen, 48 h
[1] = tested on: 786-0 renal
[2] = tested on: A498 renal
[3] = tested on: A549 NSCLC
[4] = tested on: ACHN renal
[5] = tested on: BT-549 breast
[6] = tested on: CAKI-1 renal
[7] = tested on: CCRF-CEM leukemia
[8] = tested on: COLO 205 colon
[9] = tested on: DU-145 prostate
[10] = tested on: HCC-2998 colon
[11] = tested on: HCT-116 colon
[12] = tested on: HCT-15 colon
[13] = tested on: HL-60(TB) leukemia
[14] = tested on: HOP-62 NSCLC
[15] = tested on: HOP-92 NSCLC
[16] = tested on: HS 578T breast
[17] = tested on: HT29 colon
[18] = tested on: IGROV1 ovarian
[19] = tested on: K-562 leukemia
[20] = tested on: KM12 colon
[21] = tested on: LOX IMVI melanoma
[22] = tested on: M14 melanoma
[23] = tested on: MALME-3M melanoma
[24] = tested on: MCF7 breast
[25] = tested on: MDA-MB-231 breast
[26] = tested on: MDA-MB-435
[27] = tested on: MOLT-4 leukemia
[28] = tested on: NCI-H226 lung
[29] = tested on: NCI-H23 lung
[30] = tested on: NCI-H460 lung
[31] = tested on: NCI-H522 lung
[32] = tested on: NCI/ADR-RES ovarian
[33] = tested on: OVCAR-3 ovarian
[34] = tested on: OVCAR-4 ovarian
[35] = tested on: OVCAR-5 ovarian
[36] = tested on: OVCAR-8 ovarian
[37] = tested on: PC-3 prostate
[38] = tested on: RPMI-8226 leukemia
[39] = tested on: RXF 393 renal
[40] = tested on: SF-268 CNS
[41] = tested on: SF-295 CNS
[42] = tested on: SF-539 CNS
[43] = tested on: SK-MEL-2 melanoma
[44] = tested on: SK-MEL-28 melanoma
[45] = tested on: SK-MEL-5 melanoma
[46] = tested on: SK-OV-3 ovarian
[47] = tested on: SN12C renal
[48] = tested on: SNB-19 CNS
[49] = tested on: SNB-75 CNS
[50] = tested on: SR leukemia
[51] = tested on: SW-620 colon
[52] = tested on: T-47D breast
[53] = tested on: TK-10 renal
[54] = tested on: U251 CNS
[55] = tested on: UACC-257 melanoma
[56] = tested on: UACC-62 melanoma
[57] = tested on: UO-31 renal

SMILES: COC(=O)Nc1nc2c(OC)c(OC)c(OC)cc2[nH]1
- GI50 [1]: 66.4 µM
- TGI [1]: > 100 µM
- GI50 [2]: 25.5 µM
- TGI [2]: > 100 µM
- GI50 [3]: 14.8 µM
- TGI [3]: > 100 µM
- GI50 [4]: 81.9 µM
- TGI [4]: > 100 µM
- GI50 [5]: 50.4 µM
- TGI [5]: > 100 µM
- GI50 [6]: 15.7 µM
- TGI [6]: > 100 µM
- GI50 [7]: 25.4 µM
- TGI [7]: > 100 µM
- GI50 [8]: 7.33 µM
- TGI [8]: 64.7 µM
- GI50 [9]: 32 µM
- TGI [9]: > 100 µM
- GI50 [10]: 55.6 µM
- TGI [10]: > 100 µM
- GI50 [11]: 10.1 µM
- TGI [11]: > 100 µM
- GI50 [12]: 5.71 µM
- TGI [12]: > 100 µM
- GI50 [13]: 6.33 µM
- TGI [13]: > 89.5 µM
- GI50 [14]: 33.5 µM
- TGI [14]: > 100 µM
- GI50 [15]: 20.9 µM
- TGI [15]: > 91.4 µM
- GI50 [16]: 30 µM
- TGI [16]: > 92.3 µM
- GI50 [17]: 4.63 µM
- TGI [17]: > 97.1 µM
- GI50 [18]: 22.1 µM
- TGI [18]: > 100 µM
- GI50 [19]: 5.43 µM
- TGI [19]: > 100 µM
- GI50 [20]: 5.48 µM
- TGI [20]: > 100 µM
- GI50 [21]: 49 µM
- TGI [21]: > 100 µM
- GI50 [22]: 8.9 µM
- TGI [22]: > 100 µM
- GI50 [23]: 16.4 µM
- TGI [23]: > 100 µM
- GI50 [24]: 9.38 µM
- TGI [24]: > 100 µM
- GI50 [25]: 18.7 µM
- TGI [25]: > 100 µM
- GI50 [26]: 2.09 µM
- TGI [26]: 5.71 µM
- GI50 [27]: 67.2 µM
- TGI [27]: > 100 µM
- GI50 [28]: 61.4 µM
- TGI [28]: > 100 µM
- GI50 [29]: 39.1 µM
- TGI [29]: > 100 µM
- GI50 [30]: 14.6 µM
- TGI [30]: > 100 µM
- GI50 [31]: 13.3 µM
- TGI [31]: 58.1 µM
- GI50 [32]: 8.91 µM
- TGI [32]: 97.6 µM
- GI50 [33]: 15.6 µM
- TGI [33]: 49.1 µM
- GI50 [34]: 64.2 µM
- TGI [34]: > 100 µM
- GI50 [35]: 49.6 µM
- TGI [35]: > 100 µM
- GI50 [36]: 38.7 µM
- TGI [36]: > 100 µM
- GI50 [37]: 24.2 µM
- TGI [37]: > 100 µM
- GI50 [38]: 35.6 µM
- TGI [38]: > 100 µM
- GI50 [39]: 18.4 µM
- TGI [39]: 66 µM
- GI50 [40]: 59.2 µM
- TGI [40]: > 100 µM
- GI50 [41]: 27.9 µM
- TGI [41]: > 100 µM
- GI50 [42]: 18.6 µM
- TGI [42]: 73.3 µM
- GI50 [43]: 15.1 µM
- TGI [43]: > 91.6 µM
- GI50 [44]: 52.4 µM
- TGI [44]: > 100 µM
- GI50 [45]: 9.34 µM
- TGI [45]: > 100 µM
- GI50 [46]: 30.8 µM
- TGI [46]: > 100 µM
- GI50 [47]: 74 µM
- TGI [47]: > 100 µM
- GI50 [48]: 45.7 µM
- TGI [48]: > 100 µM
- GI50 [49]: 15.4 µM
- TGI [49]: > 92.6 µM
- GI50 [50]: 3.39 µM
- TGI [50]: > 75.7 µM
- GI50 [51]: 5.8 µM
- TGI [51]: > 100 µM
- GI50 [52]: 33.2 µM
- TGI [52]: > 100 µM
- GI50 [53]: 66.6 µM
- TGI [53]: > 100 µM
- GI50 [54]: 21.1 µM
- TGI [54]: > 100 µM
- GI50 [55]: > 100 µM
- TGI [55]: > 100 µM
- GI50 [56]: 13.3 µM
- TGI [56]: > 100 µM
- GI50 [57]: 36.4 µM
- TGI [57]: > 100 µM
